Measured values reported in patent publication US8598374B2, “GPR120 receptor agonists and uses thereof” (Metabolex, Inc, priority 2008, dated 2013).

Molecular target: T1, human GPR120 (Homo sapiens, UniProt Q5NUL3)
T1 construct: Flag (DYKDDDDK) (N); host or cells: HEK293 cells co-expressing Gqi5
T1 sequence (Q5NUL3 1-361): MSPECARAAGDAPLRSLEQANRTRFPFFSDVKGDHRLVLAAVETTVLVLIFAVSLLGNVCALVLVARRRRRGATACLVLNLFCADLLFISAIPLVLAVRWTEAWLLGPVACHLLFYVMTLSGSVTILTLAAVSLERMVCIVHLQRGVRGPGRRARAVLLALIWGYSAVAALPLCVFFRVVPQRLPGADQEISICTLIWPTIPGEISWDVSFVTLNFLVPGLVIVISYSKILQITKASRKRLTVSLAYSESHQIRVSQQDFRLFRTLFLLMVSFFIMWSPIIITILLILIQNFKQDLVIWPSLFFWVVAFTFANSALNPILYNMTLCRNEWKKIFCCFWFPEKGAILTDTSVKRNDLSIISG
Assay: Intracellular Ca2+ assay (FLIPR Calcium 4, Flexstation) in human GPR120 stable cell line
Format: cell-based
Conditions: for EC50: human GPR120 stably expressing cells, eight concentrations from 0.00001 to 20 μM; for % Activity (Ex. 25 Reference Compound): % activity at 2.5 μM compared to the maximal activity of the compound of Example 25 at 2.5 μM, HEK293 cells co-expressing Gqi5
Method: Human GPR120 stable cell line was purchased from Multispan Inc (26219 Eden Landing Road, Hayward, Calif. 94545). This GPR120 cell line was generated in HEK293 cells co-expressing Gqi5. In this cell line, the Flag epitope tag (DYKDDDDK) was fused to the amino terminus of human GPR120 protein.
The concentration of intracellular Ca^2+ was measured as described below. Human GPR120 cells were plated in 96 well plates (Poly-D-Lysine coated black/clear Plate, Greiner Bio-One) at 70,000 cells per well and cultured overnight in conditions of 37° C. and 5% CO2. A Ca^2+ assay dye stock solution was prepared by adding 10 mL of assay buffer (HBSS/20 mM HEPES, pH 7.4) to FLIPR Calcium 4 Assay Bulk Kit (Molecular Devices). The 10 mL of Ca^2+ assay dye solution was prepared by further diluting 0.5 mL of Ca^2+ assay dye stock solution with 10 mL of assay buffer. The medium of the cells was removed and immediately 100 μL of the Ca^2+ assay dye solution was dispensed into each well followed by incubation at 37° C. and 5% CO2 for 50 minutes to incorporate the Ca^2+ dye into the cells. The cell plate was then placed in the Flexstation (Molecular Devices) for 20 minutes at 37° C. Compounds were dissolved in 100% DMSO and diluted to desired concentrations with assay buffer and placed in the Flexstation simultaneously with the cell plate for 20 minute incubation at 37° C. prior to reading. Fluorescence intensity was measured immediately following compound addition (25 μL/well) on the Flexstation at an excitation wavelength of 485 nm and an emission wavelength of 525 with 515 nm auto cutoff. The resulting increase in fluorescence intensities corresponds to increases in intracellular Ca^2+ levels.
Compounds were dissolved in 100% DMSO to a concentration of 20 mM to provide stock solutions. To determine activity against human GPR120, compounds were added with human GPR120 stably expressing cells (described above), at eight desired concentrations ranging from 0.00001 to 20 μM, in 96 well plates and fluorescence intensities were measured for 90 seconds with 2-second intervals. An EC50 value (concentration of the GPR120 agonist where 50% of the agonist's maximal activity is observed) was calculated using the changes (Max-Min) of fluorescence intensity.
To determine percent activity for a tested compound, the fluorescence intensity value obtained at a particular concentration were compared to the maximal fluorescence intensity value obtained for reference compound GW9508 (4-[[(3-phenoxyphenyl)methyl]amino]benzene propanoic acid; British Journal of Pharmacology 2006 148, 619-628) or the compound of Example 25. When GW9508 was used as the reference compound, the maximal activity of GW9508 at 6.7 μM was designated as 100% activity. When the compound of Example 25 was used as the reference compound, the maximal activity of the compound of Example 25 at 2.5 μM was designated as 100% activity. Typically, the GW9508 activity reached a maximum at a concentration of approximately 6.7 μM and typically the compound of Example 25 reached a maximum activity at approximately 2.5 μM.

Row | SMILES | EC50 [µM] | % Activity (Ex. 25 Reference Compound) [%]
1 | CC1(C)Cc2cc(F)cc(COc3ccc(SCC(=O)O)cc3)c2O1 [Example 58, 2-((4-((5-fluoro-2,2-dimethyl-2,3-dihydrobenzofuran-7-yl)methoxy)phenyl)thio)-acetic acid] | 1 to 10 | 
2 | CCc1cc(OCc2cc(F)cc3c2OC(C)(C)C3)ccc1/C=C/C(=O)O [Example 60, (E)-3-(2-ethyl-4-((5-fluoro-2,2-dimethyl-2,3-dihydrobenzofuran-7-yl)methoxy)phenyl)acrylic acid] | 1 to 10 | 
3 | CC1(C)Cc2cc(Cl)cc(COc3ccc(CCC(=O)O)c(C(F)(F)F)c3)c2O1 [Example 62, 3-(4-((5-chloro-2,2-dimethyl-2,3-dihydrobenzofuran-7-yl)methoxy)-2-(trifluoromethyl)phenyl)propanoic acid] | 1 to 10 | 
4 | CC1(C)Cc2cc(Cl)cc(COc3ccc(CCC(=O)O)c4c3CCC4)c2O1 [Example 64, 3-(7-((5-chloro-2,2-dimethyl-2,3-dihydrobenzofuran-7-yl)methoxy)-2,3-dihydro-1H-inden-4-yl)propanoic acid] | 1 to 10 | 
5 | C[C@H](Cc1ccc(OCc2cc(F)cc3c2OC(C)(C)C3)cc1)C(=O)O [Example 65, (R)-3-(4-((5-fluoro-2,2-dimethyl-2,3-dihydrobenzofuran-7-yl)methoxy)phenyl)-2-methylpropanoic acid] | 1 to 10 | 141.04
6 | CC(Cc1ccc(NCc2cc(F)cc3c2OC(C)(C)C3)cc1)C(=O)O (stereo not drawn) [Example 67] | 1 to 10 | 141.82
7 | CC(Cc1ccc(NC(=O)c2cc(F)cc3c2OC(C)(C)C3)cc1)C(=O)O (stereo not drawn) [Example 68, 3-(4-(5-fluoro-2,2-dimethyl-2,3-dihydrobenzofuran-7-carboxamido)phenyl)-2-methylpropanoic acid] |  | 69.03
8 | CC1(C)Cc2cc(F)cc(CCc3ccc(OCC(=O)O)cc3)c2O1 [Example 70, 2-(4-(2-(5-fluoro-2,2-dimethyl-2,3-dihydrobenzofuran-7-yl)ethyl)phenoxy)acetic acid] |  | 117.72
9 | CC1(C)Cc2cc(Cl)cc(COc3ccc(CCC(=O)O)c(-c4ccccc4)c3)c2O1 [Example 71, 3-(5-((5-chloro-2,2-dimethyl-2,3-dihydrobenzofuran-7-yl)methoxy)-[1,1′-biphenyl]-2-yl)propanoic acid] |  | 133.8
10 | CC(Cc1ccc(OCc2cc(Cl)cc3c2OC(C)(C)C3=O)c(C(F)(F)F)c1)C(=O)O (stereo not drawn) [Example 79, 3-(4-((5-chloro-2,2-dimethyl-3-oxo-2,3-dihydrobenzofuran-7-yl)methoxy)-3-(trifluoromethyl)phenyl)-2-methylpropanoic acid] |  | 3.85
11 | CC(Cc1ccc(OCc2cc(Cl)cc3c2OC(C)(C)C3O)c(F)c1)C(=O)O (stereo not drawn) [Example 80, 3-(4-((5-chloro-3-hydroxy-2,2-dimethyl-2,3-dihydrobenzofuran-7-yl)methoxy)-3-fluorophenyl)-2-methylpropanoic acid] |  | 86.25
12 | CC(Cc1ccc(OCc2cc(-c3ccc(Cl)cc3)cc3c2OC(C)(C)C3)cc1)C(=O)O (stereo not drawn) [Example 82, 3-(4-((5-(4-chlorophenyl)-2,2-dimethyl-2,3-dihydrobenzofuran-7-yl)methoxy)phenyl)-2-methylpropanoic acid] |  | 24
13 | CC(Cc1ccc(OCc2cc(-c3cccc(C(F)(F)F)c3)cc3c2OC(C)(C)C3)cc1)C(=O)O (stereo not drawn) [Example 87, 3-(4-((2,2-dimethyl-5-(3-(trifluoromethyl)phenyl)-2,3-dihydrobenzofuran-7-yl)methoxy)phenyl)-2-methylpropanoic acid] | 1 to 10 | 
14 | CC(Cc1ccc(OCc2cc(-n3cnnn3)cc3c2OC(C)(C)C3)cc1)C(=O)O (stereo not drawn) [Example 90, 3-(4-((2,2-dimethyl-5-(1H-tetrazol-1-yl)-2,3-dihydrobenzofuran-7-yl)methoxy)phenyl)-2-methylpropanoic acid] | 1 to 10 | 75.86

Now from value to compound:

Row | EC50 [µM] | % Activity (Ex. 25 Reference Compound) [%] | SMILES
15 | 1 to 10 |  | COc1cc(CCC(=O)O)c(Br)cc1OCc1cc(Cl)cc2c1OC(C)(C)C2 [Example 57, 3-(2-bromo-4-((5-chloro-2,2-dimethyl-2,3-dihydrobenzofuran-7-yl)methoxy)-5-methoxyphenyl)propanoic acid]
16 | 1 to 10 | 117.58 | CC1(C)Cc2cc(Cl)cc(COc3ccc(SCC(=O)O)cc3)c2O1 [Example 59, 2-((4-((5-chloro-2,2-dimethyl-2,3-dihydrobenzofuran-7-yl)methoxy)phenyl)thio)-acetic acid]
17 | 1 to 10 |  | CC1(C)Cc2cc(F)cc(COc3ccc(CCC(=O)O)c(C(F)(F)F)c3)c2O1 [Example 61, 3-(4-((5-fluoro-2,2-dimethyl-2,3-dihydrobenzofuran-7-yl)methoxy)-2-(trifluoromethyl)phenyl)propanoic acid]
18 | 1 to 10 | 95.03 | CC1(C)Cc2cc(F)cc(COc3ccc(CCC(=O)O)c4c3CCC4)c2O1 [Example 63, 3-(7-((5-fluoro-2,2-dimethyl-2,3-dihydrobenzofuran-7-yl)methoxy)-2,3-dihydro-1H-inden-4-yl)propanoic acid]
19 | 1 to 10 |  | C[C@@H](Cc1ccc(OCc2cc(F)cc3c2OC(C)(C)C3)cc1)C(=O)O [Example 66, (S)-3-(4-((5-fluoro-2,2-dimethyl-2,3-dihydrobenzofuran-7-yl)methoxy)phenyl)-2-methylpropanoic acid]
20 |  | 78.46 | CCOC(Cc1cc(F)c(OCc2cc(F)cc3c2OC(C)(C)C3)c(F)c1)C(=O)O (stereo not drawn) [Example 69, 3-(3,5-difluoro-4-((5-fluoro-2,2-dimethyl-2,3-dihydrobenzofuran-7-yl)methoxy)phenyl)-2-ethoxypropanoic acid]
21 |  | 114.85 | CCCc1cc(OCc2cc(Cl)cc3c2OC(C)(C)C3)c(F)cc1CCC(=O)O [Example 73, 3-(4-((5-chloro-2,2-dimethyl-2,3-dihydrobenzofuran-7-yl)methoxy)-5-fluoro-2-propylphenyl)propanoic acid]
22 |  | 109.62 | CC(Cc1ccc(OCc2cc(Cl)cc3c2OC(C)(C)C3=O)c(F)c1)C(=O)O (stereo not drawn) [Example 77, 3-(4-((5-chloro-2,2-dimethyl-3-oxo-2,3-dihydrobenzofuran-7-yl)methoxy)-3-fluorophenyl)-2-methylpropanoic acid]
23 | 1 to 10 | 5.23 | COc1cccc(-c2cc(COc3ccc(CC(C)C(=O)O)cc3)c3c(c2)CC(C)(C)O3)c1 (stereo not drawn) [Example 86, 3-(4-((5-(3-methoxyphenyl)-2,2-dimethyl-2,3-dihydrobenzofuran-7-yl)methoxy)phenyl)-2-methylpropanoic acid]
24 | 1 to 10 | 118.92 | CC(Cc1ccc(OCc2cc(Cl)cc3c2OC(C)(C)C3)c(CN(C)C)c1)C(=O)O (stereo not drawn) [Example 88, 3-(4-((5-chloro-2,2-dimethyl-2,3-dihydrobenzofuran-7-yl)methoxy)-3-((dimethylamino)methyl)phenyl)-2-methylpropanoic acid]
25 | 1 to 10 | 82.28 | CCN(CC)c1cc(COc2ccc(CC(C)C(=O)O)cc2)c2c(c1)CC(C)(C)O2 (stereo not drawn) [Example 89, 3-(4-((5-(diethylamino)-2,2-dimethyl-2,3-dihydrobenzofuran-7-yl)methoxy)phenyl)-2-methylpropanoic acid]
